Test results as given in patent US20150023904A1, “NEW APPLICATION OF PVP-I” (priority 2013, published 2015).

Test system: patients suffering premature ejaculation
Test: IELT before and after treatment in patients suffering premature ejaculation (Groups a, b, c)
Format: in vivo, human
From the text: 31 patients (27±5 years old) suffering premature ejaculation for 0.5 to 2 years who have abandoned other therapies for at least 1 month before participating in this experiment. With normal sexual desire, and without drug abuse experience, suspected drug use, or contact with radioactive materials, all these patients are composed of 10 with circumcision, 1 with renal insufficiency, 2 with unsatisfactory sexual life after marriage, and 1 with weak erection.
Taking intravaginal ejaculatin latency time (IELT) as the experimental parameter, if the time after insertion into the vagina is less than 1 minute, deem it as 1 minute. Take IELT for 3 times before and after the treatment, then calculate the mean value.
The experiment was performed by observation of three groups: a, b and c, wherein,
IELT shall be calculated after 1 month of drug taking respectively.
All the data were analyzed statistically with statistical software SPSS 18.0, and for single variables, t was inspected by taking the inspection standard α=0.05, with the inspection results as below: codes a, b and c represent different groups, the data following denote treatment time, 1 signifies IELT before treatment, 2 represents IELT after treatment and N as the number of patients.

In the case of CN[C@H]1CC[C@@H](c2ccc(Cl)c(Cl)c2)c2ccccc21 [sertraline], the “number of patients with prolonged IELT after treatment” value (Group a N=4, Group b N=13, Group c N=14, from scatter plots FIG. 2-4) is reported as 4, the “IELT after treatment, mean value” (after treatment, IELT taken 3 times and averaged, calculated after 1 month of drug taking, IELT less than 1 minute deemed 1 minute) is reported as 3.75 min and the “IELT before treatment, mean value” (before treatment (baseline of the same group), IELT taken 3 times and averaged) is reported as 1.25 min. For the same compound, the “patients with side effects or adverse reaction” value (lethargy, dysphoria, bruxism and nausea, disappeared 2 to 3 days after drug withdrawal) was 5.
